Test results from patent EP4603105A1, “PHARMACEUTICAL COMPOSITION CONTAINING CYCLIC COMPOUND HAVING SELECTIVE KRAS INHIBITORY EFFECT AGAINST HRAS AND NRAS” (CHUGAI SEIYAKU KABUSHIKI KAISHA, priority 2022, dated 2024).
*1 amine or outer side, *2 acyl side, *3 side chain or, on linkers, in order; H or OH if unused. Where a SMILES comes first, the peptide text is derived from it. Bridges are numbered along the chain shown (N, C = ends). [ ]: non-standard residue; d: D form. The star is where a group is joined. hPhe(3,5-F2-4-CF3) = N[C@@H](CCc1cc(F)c(C(F)(F)F)c(F)c1)C(=O)O; hPhe(3-Cl-4-CF3) = N[C@@H](CCc1ccc(C(F)(F)F)c(Cl)c1)C(=O)O; NPrPhe(4-CF3) = CCCN[C@@H](Cc1ccc(C(F)(F)F)cc1)C(=O)O; NEtPhe(4-F) = CCN[C@@H](Cc1ccc(F)cc1)C(=O)O; NMeGly(cPent) = CN[C@H](C(=O)O)C1CCCC1; X7 = C[C@@](N[*:1])(C(=O)[*:2])C1CC1; NMeD = CN[C@@H](CC(=O)O)C(=O)O; Ac4c(3-oxa) = NC1(C(=O)O)COC1; NMeL = CN[C@@H](CC(C)C)C(=O)O; Morpholide = C1CN(*)CCO1; NMeA = CN[C@@H](C)C(=O)O; Ac5c = NC1(C(=O)O)CCCC1; Aze = O=C(O)[C@@H]1CCN1; Ac4c = NC1(C(=O)O)CCC1; NPrGly = CCCNCC(=O)O; Sar = CNCC(=O)O

What was measured:
[1] = system: human lung cancer strain NCI-H441; assay type: cell-based
Outline: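 Readout: […] after the ATP-based reagent. Compound: serial dilutions in dimethyl sulfoxide.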

[2] = target: GDP-bound NRAS wild-type protein (Homo sapiens, UniProt P01111); assay: Binding to NRAS by surface plasmon resonance (SPR), KD and KD ratio to KRAS
Chain of GDP-bound NRAS wild-type protein (P01111 whole entry): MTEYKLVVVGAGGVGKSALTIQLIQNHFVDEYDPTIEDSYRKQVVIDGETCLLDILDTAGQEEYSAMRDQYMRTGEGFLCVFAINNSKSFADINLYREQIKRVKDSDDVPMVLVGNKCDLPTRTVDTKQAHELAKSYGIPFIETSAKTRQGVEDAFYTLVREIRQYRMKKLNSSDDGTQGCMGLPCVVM
Outline: (§1)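 GDP-loaded biotinylated Avi-tag RAS proteins (E. coli-expressed) captured on a Biotin CAPture chip at ~100–300 RU; single-cycle kinetics at 30°C, 100 µL/min, 75 s injections of rising compound concentrations. HBS pH 7.4 running buffer with 1 mM DTT, 10 mM MgCl2, 10 µM GDP, 4% DMSO. KD from 1:1 binding fit.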

HRAS wild-type protein = HRAS wild-type protein (Homo sapiens, UniProt P01112); assay: Binding to HRAS by surface plasmon resonance (SPR), KD and KD ratio to KRAS
Chain of HRAS wild-type protein (P01112 whole entry): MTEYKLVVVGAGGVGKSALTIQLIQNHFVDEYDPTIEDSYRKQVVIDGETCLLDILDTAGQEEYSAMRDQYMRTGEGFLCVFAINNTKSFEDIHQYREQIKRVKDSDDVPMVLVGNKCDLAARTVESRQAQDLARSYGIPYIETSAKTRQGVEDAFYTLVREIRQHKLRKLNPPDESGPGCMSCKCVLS
Outline: as §1

[3] = ratio of the KD value with respect to GDP-bound NRAS wild-type protein to the KD value with respect to KRAS
[4] = ratio of the KD value with respect to HRAS wild-type protein to the KD value with respect to KRAS
[5] = ratio of KD for GDP-bound NRAS wild-type protein to KD for KRAS
[6] = ratio of KD for HRAS wild-type protein to KD for KRAS

IC50 [1]	SMILES	NRAS /KRAS [2, 3]	HRAS /KRAS (HRAS wild-type protein; [4])	NRAS /KRAS [2, 5]	HRAS /KRAS (HRAS wild-type protein; [6])	NRAS /KRAS ([2]; ratio of KD value for GDP-bound NRAS wild-type protein to KD value for KRAS (SPR))	HRAS /KRAS (HRAS wild-type protein; ratio of KD value for HRAS wild-type protein to KD value for KRAS (SPR))
68.8 nM	CCC[C@H]1C(=O)N[C@@H]([C@@H](C)CC)C(=O)N2CCC[C@H]2C(=O)N(C)[C@H]2C/C=C\CCN(C2=O)[C@@H](CC2CCC(F)(F)CC2)C(=O)N(C)CC(=O)N[C@@H](CCc2ccc(C(F)(F)F)c(OC)c2)C(=O)N2C[C@H](OCC)C[C@H]2C(=O)N(C)C2(CCC2)C(=O)N(C)[C@@H](C(CC)CC)C(=O)N(C)[C@H](C(=O)N(C)C)CC(=O)N1C [PP2353]	A (a compound having 10 or more and less than 20 is denoted as A)	A (a compound having 10 or more and less than 20 is denoted as A)				
28.7 nM	CCCN1C(=O)[C@@H]2CCN2C(=O)CN(C)C(=O)[C@H]([C@@H](C)CC)NC(=O)[C@H](CC(C)C)N(C)C(=O)C[C@@H](C(=O)N2CCOCC2)N(C)C(=O)[C@H](C2CCCC2)N(C)C(=O)C2(COC2)NC(=O)[C@@H]2CCCN2C(=O)[C@H](CCc2cc(F)c(C(F)(F)F)c(F)c2)NC(=O)CN(C)C(=O)[C@@H]1Cc1ccc(C(F)(F)F)cc1 [PP0801] ([NMeL]I[Sar][Aze][NPrPhe(4-CF3)][Sar][hPhe(3,5-F2-4-CF3)]P[Ac4c(3-oxa)][NMeGly(cPent)][NMeD]-Morpholide; lactam N-11)			C (A compound having a KD ratio of 0.1 or more and less than 3 is denoted as C)	B (a compound having 3 or more and less than 10 is denoted as B)		
33.6 nM	CCO[C@@H]1C[C@H]2C(=O)NC3(CCC3)C(=O)N(C)[C@@H](C(CC)CC)C(=O)N(C)[C@H](C(=O)N(C)C)CC(=O)N(C)[C@@H](CC3CCCC3)C(=O)N[C@@H]([C@@H](C)CC)C(=O)N(C)CC(=O)N(C)[C@H]3C/C=C\CCN(C3=O)[C@@H](Cc3ccc(F)cc3)C(=O)N(C)CC(=O)N[C@@H](CCc3cc(F)c(C(F)(F)F)c(F)c3)C(=O)N2C1 [PP1517]					A (a compound having 10 or more and less than 20 is denoted as A)	A (a compound having 10 or more and less than 20 is denoted as A)
1.3 nM	CCO[C@@H]1C[C@H]2C(=O)N(C)C3(CC(C)(C)C3)C(=O)N(C)[C@@H](C3CCCC3)C(=O)N(C)[C@H](C(=O)N(C)C)CC(=O)N(C)[C@H]3CCCCCCc4ccc(cc4)C[C@@H](C(=O)N(C)CC(=O)N[C@@H](CCc4ccc(C(F)(F)F)c(OC)c4)C(=O)N2C1)N1CC/C=C\C[C@@H](C1=O)N(C)C(=O)CN(C)C(=O)[C@H]([C@@H](C)CC)NC3=O [PP3090]			A (a compound having 10 or more and less than 20 is denoted as A)	B (a compound having 3 or more and less than 10 is denoted as B)		
16.2 nM	CCO[C@@H]1C[C@H]2C(=O)NC3(CC(C)(C)C3)C(=O)N(C)[C@@H](C(CC)CC)C(=O)N(C)[C@H](C(=O)N(C)C)CC(=O)N(C)[C@@H](CC3CCC3)C(=O)N[C@@H]([C@@H](C)CC)C(=O)N(C)CC(=O)N(C)[C@H]3C/C=C\CCN(C3=O)[C@@H](Cc3ccc(C(F)(F)F)cc3)C(=O)N(C)CC(=O)N[C@@H](CCc3cc(F)c(C(F)(F)F)c(F)c3)C(=O)N2C1 [PP2133]	AA (a compound having 20 or more is denoted as AA)	A (a compound having 10 or more and less than 20 is denoted as A)				
7.9 nM	CC[C@H](C)[C@@H]1NC(=O)[C@@H]2CCCc3ccc(cc3)C[C@@H](C(=O)N(C)CC(=O)N[C@@H](CCc3ccc(C(F)(F)F)c(OC)c3)C(=O)N3C[C@H](OC4CCCC4)C[C@H]3C(=O)NC3(CC(C)(C)C3)C(=O)N(C)[C@@H](C3CCCC3)C(=O)N(C)[C@H](C(=O)N(C)CC)CC(=O)N2C)N2CC/C=C\C[C@@H](C2=O)N(C)C(=O)CN(C)C1=O [PP3086]			B (a compound having 3 or more and less than 10 is denoted as B)	B (a compound having 3 or more and less than 10 is denoted as B)		
14.3 nM	CCCN1CC(=O)NC2(CCCC2)C(=O)N(C)[C@@H](C2CCCC2)C(=O)N(C)[C@H](C(=O)N2CCOCC2)CC(=O)N(C)[C@@H](CC(C)C)C(=O)N[C@@H]([C@@H](C)CC)C(=O)N(C)[C@@H](C)C(=O)N2CC[C@H]2C(=O)N(CCC)[C@@H](Cc2ccc(C(F)(F)F)cc2)C(=O)N(C)CC(=O)N[C@@H](CCc2ccc(C(F)(F)F)c(Cl)c2)C1=O [PP0288] ([NMeL]I[NMeA][Aze][NPrPhe(4-CF3)][Sar][hPhe(3-Cl-4-CF3)][NPrGly][Ac5c][NMeGly(cPent)][NMeD]-Morpholide; lactam N-11)			C (A compound having a KD ratio of 0.1 or more and less than 3 is denoted as C)	B (a compound having 3 or more and less than 10 is denoted as B)		
29 nM	C#CC[C@H]1C(=O)N[C@@H]([C@@H](C)CC)C(=O)N(C)CC(=O)N(C)[C@H]2C/C=C\CCN(C2=O)[C@@H](Cc2ccc(C(F)(F)F)cc2)C(=O)N(C)CC(=O)N[C@@H](CCc2cc(F)c(C(F)(F)F)c(F)c2)C(=O)N2C[C@H](OCC)C[C@H]2C(=O)NC2(CCC2)C(=O)N(C)[C@@H](C2CCCC2)C(=O)N(C)[C@H](C(=O)N(C)C)CC(=O)N1C [PP1115]			A (a compound having 10 or more and less than 20 is denoted as A)	A (a compound having 10 or more and less than 20 is denoted as A)		
92.3 nM	CCCN1C(=O)CN(C)C(=O)CN(C)C(=O)[C@H]([C@@H](C)CC)NC(=O)[C@H](CC(C)C)N(C)C(=O)C[C@@H](C(=O)N2CCOCC2)NC(=O)[C@H](C2CCCC2)N(C)C(=O)C2(CCC2)NC(=O)[C@@H]2CCCN2C(=O)[C@H](CCc2ccc(C(F)(F)F)c(Cl)c2)NC(=O)CN(C)C(=O)[C@@H]1Cc1ccc(C(F)(F)F)cc1 [PP0320] ([NMeL]I[Sar][Sar][NPrPhe(4-CF3)][Sar][hPhe(3-Cl-4-CF3)]P[Ac4c][NMeGly(cPent)]D-Morpholide; lactam N-11)			B (a compound having 3 or more and less than 10 is denoted as B)	B (a compound having 3 or more and less than 10 is denoted as B)		
628 nM	CC[C@H](C)[C@@H]1NC(=O)[C@H](CC(C)C)N(C)C(=O)C[C@@H](C(=O)N2CCOCC2)N(C)C(=O)[C@H](C2CCCC2)N(C)C(=O)C2(CCCC2)NC(=O)[C@@H]2CC(=O)CN2C(=O)[C@H](CCc2cc(F)c(C(F)(F)F)c(F)c2)NC(=O)CN(C)C(=O)[C@H](Cc2ccc(C(F)(F)F)cc2)N2CCCCC[C@@H](C2=O)N(C)C(=O)CN(C)C1=O [PP0493]	B (a compound having 3 or more and less than 10 is denoted as B)	B (a compound having 3 or more and less than 10 is denoted as B)				
28.8 nM	CCCN1C(=O)CN(C)C(=O)CN(C)C(=O)[C@H]([C@@H](C)CC)NC(=O)[C@H](CC(C)C)N(C)C(=O)C[C@@H](C(=O)N(C)C)N(C)C(=O)[C@H](C2CCCC2)N(C)C(=O)[C@](C)(C2CC2)NC(=O)[C@@H]2CCCN2C(=O)[C@H](CCc2cc(F)c(C(F)(F)F)c(F)c2)NC(=O)CN(C)C(=O)[C@@H]1Cc1ccc(C(F)(F)F)cc1 [PP0734] ([NMeL]I[Sar][Sar][NPrPhe(4-CF3)][Sar][hPhe(3,5-F2-4-CF3)]P[X7][NMeGly(cPent)][NMeD]-NMe2; lactam N-11)	B (a compound having 3 or more and less than 10 is denoted as B)	C (A compound having a KD ratio of 0.1 or more and less than 3 is denoted as C)				
3.9 nM	CC[C@H](C)[C@@H]1NC(=O)[C@H](CC(C)C)N(C)C(=O)C[C@@H](C(=O)N2CCOCC2)N(C)C(=O)[C@H](C2CCCC2)N(C)C(=O)C2(CCCC2)NC(=O)[C@@H]2CCCN2C(=O)[C@H](CCc2ccc(C(F)(F)F)c(Cl)c2)NC(=O)CN(C)C(=O)[C@H](Cc2ccc(F)cc2)N(CC)C(=O)[C@@H]2CCN2C(=O)[C@H](C)N(C)C1=O [PP0218] ([NMeL]I[NMeA][Aze][NEtPhe(4-F)][Sar][hPhe(3-Cl-4-CF3)]P[Ac5c][NMeGly(cPent)][NMeD]-Morpholide; lactam N-11)			C (A compound having a KD ratio of 0.1 or more and less than 3 is denoted as C)	C (A compound having a KD ratio of 0.1 or more and less than 3 is denoted as C)		
18.2 nM	CCC(CC)[C@@H]1NC(=O)[C@H](CC(C)C)N(C)C(=O)C[C@@H](C(=O)N2CCOCC2)N(C)C(=O)[C@H](C2CCCC2)N(C)C(=O)C2(CCCC2)NC(=O)[C@@H]2CCCN2C(=O)[C@H](CCc2cc(F)c(C(F)(F)F)c(F)c2)NC(=O)CN(C)C(=O)[C@H](Cc2ccc(C(F)(F)F)cc2)N2CCCC[C@@H](C2=O)N(C)C(=O)CN(C)C1=O [PP0597]	B (a compound having 3 or more and less than 10 is denoted as B)	B (a compound having 3 or more and less than 10 is denoted as B)				
1.8 nM	CCO[C@@H]1C[C@H]2C(=O)NC3(CCC3)C(=O)N(C)[C@@H](C3CCCC3)C(=O)N(C)[C@H](C(=O)N(C)C)CC(=O)N(C)[C@@H](CC(C)C)C(=O)N[C@@H]([C@@H](C)CC)C(=O)N(C)CC(=O)N(C)[C@H]3CCCCN(C3=O)[C@@H](Cc3ccc(C(F)(F)F)cc3)C(=O)N(C)CC(=O)N[C@@H](CCc3cc(F)c(C(F)(F)F)c(F)c3)C(=O)N2C1 [PP0580]	C (A compound having a KD ratio of 0.1 or more and less than 3 is denoted as C)	C (A compound having a KD ratio of 0.1 or more and less than 3 is denoted as C)				
6.6 nM	CCC[C@H]1C(=O)N[C@@H](C2CCCC2)C(=O)N(C)CC(=O)N(C)[C@H]2C/C=C\CCN(C2=O)[C@@H](Cc2ccc(C)cc2)C(=O)N(C)CC(=O)N[C@@H](CCc2ccc(C(F)(F)F)c(Cl)c2)C(=O)N2C[C@H](OCC)C[C@H]2C(=O)NC2(CC(C)(C)C2)C(=O)N(C)[C@@H](CC(C)(C)C)C(=O)N(C)[C@H](C(=O)N(C)C)CC(=O)N1C [PP2196]	A (a compound having 10 or more and less than 20 is denoted as A)	B (a compound having 3 or more and less than 10 is denoted as B)				
